Measurements as given in patent US20250171459A1, “2-METHYL-4',5'-DIHYDROSPIRO[PIPERIDINE-4,7'-THIENO[2,3-C]PYRAN] DERIVATIVES AS INHIBITORS OF APOL1 AND METHODS OF USING SAME” (Vertex Pharmaceuticals Incorporated, priority 2022, published 2025).

Molecular target: T1, APOL1 (Homo sapiens, UniProt O14791)
T1 sequence (O14791 1-398 S342G/I384M): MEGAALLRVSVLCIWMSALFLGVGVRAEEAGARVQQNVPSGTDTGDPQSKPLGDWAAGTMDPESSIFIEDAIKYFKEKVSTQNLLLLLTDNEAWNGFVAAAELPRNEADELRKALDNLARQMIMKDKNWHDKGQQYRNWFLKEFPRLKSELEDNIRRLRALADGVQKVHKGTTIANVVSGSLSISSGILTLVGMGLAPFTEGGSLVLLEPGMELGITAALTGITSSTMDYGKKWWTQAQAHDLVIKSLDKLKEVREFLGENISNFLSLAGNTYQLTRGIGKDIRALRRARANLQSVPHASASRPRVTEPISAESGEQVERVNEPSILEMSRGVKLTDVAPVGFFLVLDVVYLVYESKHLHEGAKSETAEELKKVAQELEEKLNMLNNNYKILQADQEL
Test: MultiTox-Fluor Multiplex Cytotoxicity Assay in tet-inducible APOL1 T-REx-HEK293 cells (cell rescue, ratio of dead to live cells)
Type: cell-based
Conditions: tet-inducible transgenic APOL1 T-REx-HEK293 cell lines, 50 ng/mL tet, 24 hours; read-out: IP50 (i.e., IC50 for cell proliferation)
Procedure, shortened: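 T-REx-HEK293 cells with tet-inducible APOL1 were treated with compound (10 μM top, 10-point 3-fold dilution, duplicate) plus 50 ng/mL tetracycline for 24 h at 37° C, in DMEM with 2% tet-free FBS. MultiTox-Fluor protease signals gave a dead/live ratio, normalized to no tet (100% viability) and tet alone (0%).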

| Compound | IC50 [nM] |
| --- | --- |
| C[C@H]1C[C@@]2(CCN1Cc1cnn(C)c1)OCC(O)c1sc(C(F)(F)F)cc12 (stereo partly drawn) [Compound 542, (2′S,4R)-2′-methyl-1′-[(1-methylpyrazol-4-yl)methyl]-2-(trifluoromethyl)spiro[6,7-dihydrothieno[3,2-c]pyran-4,4′-piperidine]-7-ol] | < 100 |
| CC(O)Cn1cc(CN2CC[C@]3(C[C@@H]2C)OCCc2cc(CC(F)F)sc23)nn1 (stereo partly drawn) [Compound 543, 1-[4-[[(2′S, 7R)-2-(2,2-difluoroethyl)-2′-methyl-spiro[4,5-dihydrothieno[2,3-c]pyran-7,4′-piperidine]-1′-yl]methyl]triazol-1-yl]propan-2-ol] | < 100 |
| C[C@H]1C[C@@]2(CCN1Cc1cn(C(C)(C)CO)nn1)OCCc1cc(CC(F)F)sc12 [Compound 544] | 500 to 1000 |
| C[C@H]1C[C@@]2(CCN1Cc1cn(CCCS(C)(=O)=O)nn1)OCCc1cc(CC(F)F)sc12 [Compound 545] | < 100 |
| C[C@H]1C[C@@]2(CCN1Cc1cn(CC(C)(CO)CO)nn1)OCCc1cc(CC(F)F)sc12 [Compound 546] | < 100 |
| C[C@H]1C[C@@]2(CCN1Cc1cn(C3CCOCC3)nn1)OCCc1cc(CC(F)F)sc12 [Compound 547] | < 100 |
| C[C@H]1C[C@@]2(CCN1Cc1cn(CC(O)C(C)(C)O)nn1)OCCc1cc(CC(F)F)sc12 (some centres unmarked) [Compound 548] | < 100 |
| C[C@H]1C[C@@]2(CCN1C[C@H]1C[C@@H](NS(=O)(=O)CC#N)C1)OCCc1cc(CC(F)F)sc12 [Compound 549, 1-cyano-N-((1R,3s)-3-(((2S,4R)-2′-(2,2-difluoroethyl)-2-methyl-4′,5′-dihydrospiro[piperidine-4,7′-thieno[2,3-c]pyran]-1-yl)methyl)cyclobutyl)methanesulfonamide] | < 100 |
| C[C@H]1C[C@@]2(CCN1C[C@H]1C[C@@H](NC(=O)C3CC(F)(F)C3)C1)OCCc1cc(CC(F)F)sc12 [Compound 550] | < 100 |
| C[C@H]1C[C@@]2(CCN1C[C@H]1C[C@@H](NC(=O)C3CC3(F)F)C1)OCCc1cc(CC(F)F)sc12 (some centres unmarked) [Compound 551] | < 100 |
| C[C@H]1C[C@@]2(CCN1C[C@H]1C[C@@H](NS(=O)(=O)C3CC3)C1)OCCc1cc(CC(F)F)sc12 [Compound 552] | < 100 |
| CCS(=O)(=O)N[C@H]1C[C@@H](CN2CC[C@]3(C[C@@H]2C)OCCc2cc(CC(F)F)sc23)C1 [Compound 553] | < 100 |
| COC(=O)N[C@H]1C[C@@H](CN2CC[C@]3(C[C@@H]2C)OCCc2cc(CC(F)F)sc23)C1 [Compound 554] | < 100 |
| Cc1cc(C(=O)N[C@H]2C[C@@H](CN3CC[C@]4(C[C@@H]3C)OCCc3cc(CC(F)F)sc34)C2)on1 [Compound 555] | < 100 |
| C[C@H]1C[C@@]2(CCN1C[C@H]1C[C@@H](NC(=O)C3CC3)C1)OCCc1cc(CC(F)F)sc12 [Compound 556] | < 100 |
| C[C@H]1C[C@@]2(CCN1C[C@H]1C[C@@H](NC(=O)C3CCC3)C1)OCCc1cc(CC(F)F)sc12 [Compound 557] | < 100 |
| CC(=O)N[C@H]1C[C@@H](CN2CC[C@]3(C[C@@H]2C)OCCc2cc(CC(F)F)sc23)C1 [Compound 558] | < 100 |
| C[C@H]1C[C@@]2(CCN1Cc1cnn(CCS(C)(=O)=O)c1)OCCc1cc(CC(F)F)sc12 [Compound 559, (2′S, 7R)-2-(2,2-difluoroethyl)-2′-methyl-1′-[[1-(2-methylsulfonylethyl)pyrazol-4-yl]methyl]spiro[4,5-dihydrothieno[2,3-c]pyran-7,4′-piperidine]] | < 100 |
| C[C@H]1C[C@@]2(CCN1Cc1ncc(NC(C)(C)CO)cn1)OCCc1cc(CC(F)F)sc12 [Compound 560] | < 100 |
| C[C@H]1C[C@@]2(CCN1Cc1cnn(CC(C)(CO)CO)c1)OCCc1cc(CC(F)F)sc12 [Compound 561, 2-[[4-[[(2′S, 7R)-2-(2,2-difluoroethyl)-2′-methyl-spiro[4,5-dihydrothieno[2,3-c]pyran-7,4′-piperidine]-1′-yl]methyl]pyrazol-1-yl]methyl]-2-methyl-propane-1,3-diol] | < 100 |
| C[C@H]1C[C@@]2(CCN1Cc1cc[nH]n1)OCCc1cc(CC(F)F)sc12 [Compound 562] | < 100 |

| Compound | IC50 [nM] |
| --- | --- |
| C[C@H]1C[C@@]2(CCN1Cc1cnn(CCO)c1)OCCc1cc(CC(F)F)sc12 [Compound 563] | < 100 |
| C[C@H]1C[C@@]2(CCN1Cc1ccc3c(c1)n(C)c(=O)n3C)OCCc1cc(CC(F)F)sc12 [Compound 564] | < 100 |
| C[C@H]1C[C@@]2(CCN1Cc1cnn(C)c1)OCCc1cc(CC(F)F)sc12 [Compound 565] | < 100 |
| C[C@H]1C[C@@]2(CCN1Cc1cn(C)nn1)OCCc1cc(CC(F)F)sc12 [Compound 566] | < 100 |
| C[C@H]1C[C@@]2(CCN1Cc1cncnc1)OCCc1cc(CC(F)F)sc12 [Compound 567] | < 100 |
| C[C@H]1C[C@@]2(CCN1CC1CC1)OCCc1cc(CC(F)F)sc12 [Compound 568] | < 100 |
| C[C@H]1C[C@@]2(CCN1Cc1ccnnc1)OCCc1cc(CC(F)F)sc12 [Compound 569] | < 100 |
| C[C@H]1C[C@@]2(CCN1Cc1cccc(=O)[nH]1)OCCc1cc(CC(F)F)sc12 [Compound 570] | 100 to 500 |
| C[C@H]1C[C@@]2(CCN1Cc1ccnn1C)OCCc1cc(CC(F)F)sc12 [Compound 571] | 100 to 500 |
| CCN1CC[C@]2(C[C@@H]1C)OCCc1cc(CC(F)F)sc12 [Compound 572] | 100 to 500 |
| C[C@H]1C[C@@]2(CCN1Cc1cn(C)cn1)OCCc1cc(CC(F)F)sc12 [Compound 573] | 100 to 500 |
| C[C@H]1C[C@@]2(CCN1Cc1cccn(C)c1=O)OCCc1cc(CC(F)F)sc12 [Compound 574] | 500 to 1000 |
| C[C@H]1C[C@@]2(CCN1C1COC1)OCCc1cc(CC(F)F)sc12 [Compound 575] | 500 to 1000 |
| C[C@H]1C[C@@]2(CCN1CC1CCC1)OCCc1cc(CC(F)F)sc12 [Compound 576] | 100 to 500 |
| C[C@H]1C[C@@]2(CCN1Cc1ccc[nH]c1=O)OCCc1cc(CC(F)F)sc12 [Compound 577] | 100 to 500 |
| C[C@H]1C[C@@]2(CCN1Cc1ccn(C)n1)OCCc1cc(CC(F)F)sc12 [Compound 578] | < 100 |
| C[C@H]1C[C@@]2(CCN1Cc1ccon1)OCCc1cc(CC(F)F)sc12 [Compound 579] | < 100 |
| C[C@H]1C[C@@]2(CCN1Cc1ncco1)OCCc1cc(CC(F)F)sc12 [Compound 580] | 100 to 500 |
| CC(C)CN1CC[C@]2(C[C@@H]1C)OCCc1cc(CC(F)F)sc12 [Compound 581] | 100 to 500 |
| C[C@H]1C[C@@]2(CCN1CCC(F)(F)F)OCCc1cc(CC(F)F)sc12 [Compound 582] | 500 to 1000 |
| C[C@H]1C[C@@]2(CCN1CC1CCOC1)OCCc1cc(CC(F)F)sc12 (some centres unmarked) [Compound 583] | 100 to 500 |

| Compound | IC50 [nM] |
| --- | --- |
| Cc1cc(CN2CC[C@]3(C[C@@H]2C)OCCc2cc(CC(F)F)sc23)no1 [Compound 584] | < 100 |
| C[C@H]1C[C@@]2(CCN1CC1(C)COC1)OCCc1cc(CC(F)F)sc12 [Compound 585] | 100 to 500 |
| C[C@H]1C[C@@]2(CCN1CC1CCCO1)OCCc1cc(CC(F)F)sc12 (some centres unmarked) [Compound 586] | 500 to 1000 |
| C[C@H]1C[C@@]2(CCN1Cc1cncn1C)OCCc1cc(CC(F)F)sc12 [Compound 587] | 100 to 500 |
| C[C@H]1C[C@@]2(CCN1Cc1cc(F)c[nH]c1=O)OCCc1cc(CC(F)F)sc12 [Compound 588] | 500 to 1000 |
| C[C@H]1C[C@@]2(CCN1Cc1ncccc1F)OCCc1cc(CC(F)F)sc12 [Compound 589] | 500 to 1000 |
| Cc1c[nH]c(=O)c(CN2CC[C@]3(C[C@@H]2C)OCCc2cc(CC(F)F)sc23)c1 [Compound 590] | 500 to 1000 |
| C[C@H]1C[C@@]2(CCN1C1CC(O)C1)OCCc1cc(CC(F)F)sc12 (some centres unmarked) [Compound 591] | 500 to 1000 |
| C[C@H]1C[C@@]2(CCN1Cc1nccn1C)OCCc1cc(CC(F)F)sc12 [Compound 592] | 500 to 1000 |
| COc1ncc(CN2CC[C@]3(C[C@@H]2C)OCCc2cc(CC(F)F)sc23)c(OC)n1 [Compound 593] | < 100 |
| C[C@H]1C[C@@]2(CCN1CC(O)c1ccccc1)OCCc1cc(CC(F)F)sc12 (stereo partly drawn) [Compound 594, 2-[(2′S, 7R)-2-(2,2-difluoroethyl)-2′-methyl-spiro[4,5-dihydrothieno[2,3-c]pyran-7,4′-piperidine]-1′-yl]-1-phenyl-ethanol] | < 100 |
| C[C@H]1C[C@@]2(CCN1C1CCCC1O)OCCc1cc(CC(F)F)sc12 (some centres unmarked) [Compound 595] | < 100 |
| C[C@H]1C[C@@]2(CCN1CC(O)C(N)=O)OCCc1cc(CC(F)F)sc12 (some centres unmarked) [Compound 596] | < 100 |
| C[C@H]1C[C@@]2(CCN1C1COCC1O)OCCc1cc(CC(F)F)sc12 (some centres unmarked) [Compound 597] | < 100 |
| C[C@H]1C[C@@]2(CCN1C[C@@H](O)CO)OCCc1cc(CC(F)F)sc12 [Compound 598] | 100 to 500 |
| C[C@H]1C[C@@]2(CCN1CCO)OCCc1cc(CC(F)F)sc12 [Compound 599] | 100 to 500 |
| C[C@H]1C[C@@]2(CCN1CC1(O)CCOCC1)OCCc1cc(CC(F)F)sc12 [Compound 600] | 100 to 500 |
| C[C@H]1C[C@@]2(CCN1CC(O)C(F)(F)F)OCCc1cc(CC(F)F)sc12 (some centres unmarked) [Compound 601] | < 100 |
| C[C@H]1C[C@@]2(CCN1CC(O)c1ccc(F)cc1)OCCc1cc(CC(F)F)sc12 (some centres unmarked) [Compound 602] | < 100 |
| C[C@H]1C[C@@]2(CCN1CC(C)(C)O)OCCc1cc(CC(F)F)sc12 [Compound 603] | 100 to 500 |
